Patent US20240109900A1, “AZABICYCLIC SHP2 INHIBITORS” (IRBM S.P.A., priority 2021, published 2024)

What was measured:
[1] = target: SHP-2 enzyme (Met1-Leu525) (Homo sapiens (Human), UniProt Q06124); experiment: SHP2 inhibition enzymatic assay; type: biochemical; settings: 0.5 nM SHP-2 activated by 500 nM IRS1 peptide, 75 μM DiFMUP substrate; read-out: SHP2wt-IC50
Outline: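 Compounds were preincubated 30 min with 0.5 nM SHP-2 (Met1-Leu525) plus 500 nM IRS1 activating peptide (pH 7.2 HEPES, 5 mM DTT), then 75 μM DiFMUP substrate reacted 30 min at room temperature. After bpV quench, DiFMUP fluorescence gave % inhibition; four-parameter logistic fit yielded IC50.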

[2] = test system: ERK phosphorylation in KYSE-520 cells; experiment: Phospho-ERK cellular assay; type: cell-based; settings: Homo sapiens, KYSE-520, 2 h, KYSE-520 cells, 2 h at 37° C., phospho-ERK1/2 (Thr202/Tyr204) TR-FRET; read-out: PERK IC50
Outline: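 TR-FRET read-out of ERK1/2 Thr202/Tyr204 phosphorylation was taken after overnight antibody incubation at room temperature. Before that, KYSE-520 cells were treated 2 h at 37 °C with compound dilutions and lysed 30 min. Percent inhibition relative to vehicle and cell-free wells was fitted four-parametrically to give IC50.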

SHP-2 enzyme (Met1-Leu525), sequence (Q06124 1-525): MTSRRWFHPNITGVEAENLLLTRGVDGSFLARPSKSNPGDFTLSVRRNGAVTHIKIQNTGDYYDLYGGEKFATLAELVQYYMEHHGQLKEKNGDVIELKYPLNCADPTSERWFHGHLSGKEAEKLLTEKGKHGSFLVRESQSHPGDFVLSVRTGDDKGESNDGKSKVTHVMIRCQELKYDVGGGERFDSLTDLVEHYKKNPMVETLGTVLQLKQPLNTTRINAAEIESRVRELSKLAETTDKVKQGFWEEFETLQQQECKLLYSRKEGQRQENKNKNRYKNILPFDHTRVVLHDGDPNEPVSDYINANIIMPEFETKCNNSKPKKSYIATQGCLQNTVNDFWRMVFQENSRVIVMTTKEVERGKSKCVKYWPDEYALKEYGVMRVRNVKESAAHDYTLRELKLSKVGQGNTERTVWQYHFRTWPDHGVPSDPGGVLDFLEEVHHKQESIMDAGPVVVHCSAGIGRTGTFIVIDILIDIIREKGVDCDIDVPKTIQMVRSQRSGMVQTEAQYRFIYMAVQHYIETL

SMILES	IC50 [1]	IC50 [2]
Cc1c(-c2n[nH]c3nc(N4CC[C@@H]5[C@H](C4)[C@@]5(CN)c4ncc(C5CC5)cc4F)cnc23)ccc2nn(C)cc12 [Example 185, ((1S,6R,7S)-7-(5-cyclopropyl-3-fluoropyridin-2-yl)-3-(3-(2,4-dimethyl-2H-indazol-5-yl)-1H-pyrazolo[3,4-b]pyrazin-6-yl)-3-azabicyclo[4.1.0]heptan-7-yl)methanamine]	< 0.5 µM	< 1 µM
NC[C@]1(c2ccccc2F)[C@@H]2CCN(c3cnc4c(-c5ccnc6occc56)n[nH]c4n3)C[C@@H]21 [Example 186, ((1S,6R,7R)-7-(2-fluorophenyl)-3-(3-(furo[2,3-b]pyridin-4-yl)-1H-pyrazolo[3,4-b]pyrazin-6-yl)-3-azabicyclo[4.1.0]heptan-7-yl)methanamine]	< 0.5 µM	< 1 µM
NC[C@]1(c2ccccc2F)[C@@H]2CCN(c3cnc4c(-c5ccc6c(c5)CC(=O)N6)n[nH]c4n3)C[C@@H]21 [Example 187, 5-(6-((1S,6R,7R)-7-(aminomethyl)-7-(2-fluorophenyl)-3-azabicyclo[4.1.0]heptan-3-yl)-1H-pyrazolo[3,4-b]pyrazin-3-yl)indolin-2-one]	< 0.5 µM	< 1 µM
COc1cnc2ccc(-c3n[nH]c4nc(N5CC[C@@H]6[C@H](C5)[C@@]6(CN)c5ccccc5F)cnc34)cc2n1 [Example 188, ((1S,6R,7R)-7-(2-fluorophenyl)-3-(3-(3-methoxyquinoxalin-6-yl)-1H-pyrazolo[3,4-b]pyrazin-6-yl)-3-azabicyclo[4.1.0]heptan-7-yl)methanamine]	< 0.5 µM	< 1 µM
Cc1nccc(-c2n[nH]c3nc(N4CC[C@@H]5[C@H](C4)[C@@]5(CN)c4ccccc4F)cnc23)c1Cl [Example 189, ((1S,6R,7R)-3-(3-(3-chloro-2-methylpyridin-4-yl)-1H-pyrazolo[3,4-b]pyrazin-6-yl)-7-(2-fluorophenyl)-3-azabicyclo[4.1.0]heptan-7-yl)methanamine]	< 0.5 µM	< 1 µM
CN(C)c1nccc(-c2n[nH]c3nc(N4CC[C@@H]5[C@H](C4)[C@@]5(CN)c4ccccc4F)cnc23)c1Cl [Example 190, 4-(6-((1S,6R,7R)-7-(aminomethyl)-7-(2-fluorophenyl)-3-azabicyclo[4.1.0]heptan-3-yl)-1H-pyrazolo[3,4-b]pyrazin-3-yl)-3-chloro-N,N-dimethylpyridin-2-amine]	< 0.5 µM	< 1 µM
COc1ccc2c(-c3n[nH]c4nc(N5CC[C@@H]6[C@H](C5)[C@@]6(CN)c5ccccc5F)cnc34)ccnc2c1 [Example 191, ((1S,6R,7R)-7-(2-fluorophenyl)-3-(3-(7-methoxyquinolin-4-yl)-1H-pyrazolo[3,4-b]pyrazin-6-yl)-3-azabicyclo[4.1.0]heptan-7-yl)methanamine]	< 0.5 µM	< 1 µM
CN(C)Cc1ccc(-c2n[nH]c3nc(N4CC[C@@H]5[C@H](C4)[C@@]5(CN)c4ccccc4F)cnc23)c2cccnc12 [Example 192, 1-(5-(6-((1S,6R,7R)-7-(aminomethyl)-7-(2-fluorophenyl)-3-azabicyclo[4.1.0]heptan-3-yl)-1H-pyrazolo[3,4-b]pyrazin-3-yl)quinolin-8-yl)-N,N-dimethylmethanamine]	< 0.5 µM	> 5 µM
Cc1c(-c2n[nH]c3nc(N4CC[C@@H]5[C@H](C4)[C@@]5(CN)c4ccccc4F)cnc23)ccc2nonc12 [Example 193, ((1S,6R,7R)-7-(2-fluorophenyl)-3-(3-(4-methylbenzo[c][1,2,5]oxadiazol-5-yl)-1H-pyrazolo[3,4-b]pyrazin-6-yl)-3-azabicyclo[4.1.0]heptan-7-yl)methanamine]	< 0.5 µM	< 1 µM
Cn1cc2c(C3CC3)c(-c3n[nH]c4nc(N5CC[C@@H]6[C@H](C5)[C@@]6(CN)c5ccccc5F)cnc34)ccc2n1 [Example 194, ((1S,6R,7R)-3-(3-(4-cyclopropyl-2-methyl-2H-indazol-5-yl)-1H-pyrazolo[3,4-b]pyrazin-6-yl)-7-(2-fluorophenyl)-3-azabicyclo[4.1.0]heptan-7-yl)methanamine]	< 0.5 µM	< 1 µM
Cc1nccc(-c2n[nH]c3nc(N4CC[C@@H]5[C@H](C4)[C@@]5(CN)c4ccccc4F)cnc23)c1F [Example 195, ((1S,6R,7R)-3-(3-(3-fluoro-2-methylpyridin-4-yl)-1H-pyrazolo[3,4-b]pyrazin-6-yl)-7-(2-fluorophenyl)-3-azabicyclo[4.1.0]heptan-7-yl)methanamine]	< 0.5 µM	< 1 µM
NC[C@]1(c2ccccc2F)[C@@H]2CCN(c3cnc4c(-c5cc(N)ncc5Cl)n[nH]c4n3)C[C@@H]21 [Example 196, 4-(6-((1S,6R,7R)-7-(aminomethyl)-7-(2-fluorophenyl)-3-azabicyclo[4.1.0]heptan-3-yl)-1H-pyrazolo[3,4-b]pyrazin-3-yl)-5-chloropyridin-2-amine]	< 0.5 µM	< 1 µM
NC[C@]1(c2ccccc2F)[C@@H]2CCN(c3cnc4c(-c5ccnc(NC6CC6)c5Cl)n[nH]c4n3)C[C@@H]21 [Example 197, 4-(6-((1S,6R,7R)-7-(aminomethyl)-7-(2-fluorophenyl)-3-azabicyclo[4.1.0]heptan-3-yl)-1H-pyrazolo[3,4-b]pyrazin-3-yl)-3-chloro-N-cyclopropylpyridin-2-amine]	< 0.5 µM	< 1 µM
Cn1c(-c2n[nH]c3nc(N4CC[C@@H]5[C@H](C4)[C@@]5(CN)c4ccccc4F)cnc23)cccc1=O [Example 198, 6-(6-((1S,6R,7R)-7-(aminomethyl)-7-(2-fluorophenyl)-3-azabicyclo[4.1.0]heptan-3-yl)-1H-pyrazolo[3,4-b]pyrazin-3-yl)-1-methylpyridin-2(1H)-one]	< 0.5 µM	< 1 µM
Cc1c(-c2n[nH]c3nc(N4CC[C@@H]5[C@H](C4)[C@@]5(CN)c4ccc(F)cc4F)cnc23)ccc2nn(C)cc12 [Example 199, ((1S,6R,7R)-7-(2,4-difluorophenyl)-3-(3-(2,4-dimethyl-2H-indazol-5-yl)-1H-pyrazolo[3,4-b]pyrazin-6-yl)-3-azabicyclo[4.1.0]heptan-7-yl)methanamine]	< 0.5 µM	< 1 µM
COc1ccc(-c2n[nH]c3nc(N4CC[C@@H]5[C@H](C4)[C@@]5(CN)c4ccc(F)cc4F)cnc23)c2cccnc12 [Example 200, ((1S,6R,7R)-7-(2,4-difluorophenyl)-3-(3-(8-methoxyquinolin-5-yl)-1H-pyrazolo[3,4-b]pyrazin-6-yl)-3-azabicyclo[4.1.0]heptan-7-yl)methanamine]	< 0.5 µM	< 1 µM
COc1ccc(-c2n[nH]c3nc(N4CC[C@@H]5[C@H](C4)[C@@]5(CN)c4ccccc4F)cnc23)c2ccc(C)nc12 [Example 201, ((1S,6R,7R)-7-(2-fluorophenyl)-3-(3-(8-methoxy-2-methylquinolin-5-yl)-1H-pyrazolo[3,4-b]pyrazin-6-yl)-3-azabicyclo[4.1.0]heptan-7-yl)methanamine]	< 0.5 µM	< 1 µM
Cn1cc2c(C(F)F)c(-c3n[nH]c4nc(N5CC[C@@H]6[C@H](C5)[C@@]6(CN)c5ccccc5F)cnc34)ccc2n1 [Example 202, ((1S,6R,7R)-3-(3-(4-(difluoromethyl)-2-methyl-2H-indazol-5-yl)-1H-pyrazolo[3,4-b]pyrazin-6-yl)-7-(2-fluorophenyl)-3-azabicyclo[4.1.0]heptan-7-yl)methanamine]	< 0.5 µM	< 1 µM
Cn1cc2c(Cl)c(-c3n[nH]c4nc(N5CC[C@@H]6[C@H](C5)[C@@]6(CN)c5ccccc5F)cnc34)ccc2n1 [Example 203, ((1S,6R,7R)-3-(3-(4-chloro-2-methyl-2H-indazol-5-yl)-1H-pyrazolo[3,4-b]pyrazin-6-yl)-7-(2-fluorophenyl)-3-azabicyclo[4.1.0]heptan-7-yl)methanamine]	< 0.5 µM	< 1 µM
Cc1c(-c2n[nH]c3nc(N4CC[C@@H]5[C@H](C4)[C@@]5(CN)c4ccccc4F)cnc23)ccc2c1nnn2C [Example 204, ((1S,6R,7R)-3-(3-(1,4-dimethyl-1H-benzo[d][1,2,3]triazol-5-yl)-1H-pyrazolo[3,4-b]pyrazin-6-yl)-7-(2-fluorophenyl)-3-azabicyclo[4.1.0]heptan-7-yl)methanamine]	< 0.5 µM	< 1 µM
Cc1c(-c2n[nH]c3nc(N4CC[C@@H]5[C@H](C4)[C@@]5(CN)c4ccccc4F)cnc23)ccc2nn(C)nc12 [Example 205, ((1S,6R,7R)-3-(3-(2,4-dimethyl-2H-benzo[d][1,2,3]triazol-5-yl)-1H-pyrazolo[3,4-b]pyrazin-6-yl)-7-(2-fluorophenyl)-3-azabicyclo[4.1.0]heptan-7-yl)methanamine]	< 0.5 µM	< 1 µM
CC1(C)C(=O)Nc2ccc(-c3n[nH]c4nc(N5CC[C@@H]6[C@H](C5)[C@@]6(CN)c5ccccc5F)cnc34)cc21 [Example 206, 5-(6-((1S,6R,7R)-7-(aminomethyl)-7-(2-fluorophenyl)-3-azabicyclo[4.1.0]heptan-3-yl)-1H-pyrazolo[3,4-b]pyrazin-3-yl)-3,3-dimethylindolin-2-one]	< 0.5 µM	< 1 µM
